Assay results taken from ChEMBL document CHEMBL5131541, “Structural Feature Analyzation Strategies toward Discovery of Orally Bioavailable PROTACs of Bruton's Tyrosine Kinase for the Treatment of Lymphoma” (J Med Chem, 2022).
Active and inactive are the calls of the source. The rule behind the calls is not given here.

Key:
[1] = AUC (0 to t) in Sprague-Dawley rat at 10 mg/kg, po administered as cassette dose measured upto 24 hrs by LC-MS analysis; assay type: ADME, organism-based; set-up: dose 10 mg/kg, time < 24 hrs, route po; conditions: in vivo
[2] = Cmax in Sprague-Dawley rat at 10 mg/kg, po administered as cassette dose measured upto 24 hrs by LC-MS analysis; assay type: ADME, organism-based; set-up: time < 24 hrs, dose 10 mg/kg, route po; conditions: in vivo
[3] = AUC (0 to t) in ICR mouse at 20 mg/kg, po administered as single dose measured upto 48 hrs by LC-MS analysis; assay type: ADME, organism-based; set-up: dose 20 mg/kg, time < 48 hrs, route po; conditions: in vivo
[4] = molecular target: T1, Tyrosine-protein kinase BTK (Homo sapiens, UniProt Q06187); experiment: Inhibition of BTK (unknown origin)
T1 sequence (Q06187 whole entry): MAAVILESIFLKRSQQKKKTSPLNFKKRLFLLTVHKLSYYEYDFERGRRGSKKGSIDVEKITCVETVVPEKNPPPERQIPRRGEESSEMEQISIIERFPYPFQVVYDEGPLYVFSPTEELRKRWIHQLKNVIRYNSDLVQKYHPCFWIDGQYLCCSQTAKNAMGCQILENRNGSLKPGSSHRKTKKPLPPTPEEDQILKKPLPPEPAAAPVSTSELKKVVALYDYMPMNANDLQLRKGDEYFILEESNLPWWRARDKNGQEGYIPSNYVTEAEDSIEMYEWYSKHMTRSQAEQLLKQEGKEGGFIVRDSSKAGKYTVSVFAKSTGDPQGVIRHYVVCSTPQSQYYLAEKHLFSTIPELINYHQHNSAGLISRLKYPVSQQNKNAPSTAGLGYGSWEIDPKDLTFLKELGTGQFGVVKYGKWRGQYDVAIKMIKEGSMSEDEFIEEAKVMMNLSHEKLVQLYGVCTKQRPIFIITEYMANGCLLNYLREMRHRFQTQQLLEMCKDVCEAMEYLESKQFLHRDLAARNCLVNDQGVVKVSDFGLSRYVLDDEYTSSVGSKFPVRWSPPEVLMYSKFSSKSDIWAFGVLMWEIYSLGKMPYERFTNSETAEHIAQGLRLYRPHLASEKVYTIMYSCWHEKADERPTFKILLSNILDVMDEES

[5] = Half life in ICR mouse at 20 mg/kg, po administered as single dose measured upto 48 hrs by LC-MS analysis; assay type: ADME, organism-based; conditions: in vivo
TMD8 = experiment: cells; conditions: Homo sapiens
[6] = Cmax in ICR mouse at 20 mg/kg, po administered as single dose measured upto 48 hrs by LC-MS analysis; assay type: ADME, organism-based; set-up: dose 20 mg/kg, time < 48 hrs, route po; conditions: in vivo
[7] = molecular target: T1, Tyrosine-protein kinase BTK; experiment: Induction of BTK degradation in human MINO cells incubated for 24 hrs by Western blot analysis; assay type: cell-based; conditions: dose 1-1000 nM, DDE = dose-dependent effect
OCI-Ly10 [8] = experiment: cells; conditions: Homo sapiens
[9] = Tmax in Sprague-Dawley rat at 10 mg/kg, po administered as cassette dose measured upto 24 hrs by LC-MS analysis; assay type: ADME, organism-based; conditions: in vivo
[10] = AUC (0 to infinity) in ICR mouse at 20 mg/kg, po administered as single dose measured upto 48 hrs by LC-MS analysis; assay type: ADME, organism-based; set-up: dose 20 mg/kg, time < 48 hrs, route po; conditions: in vivo
[11] = molecular target: Tyrosine-protein kinase BTK (Mus musculus) (UniProt P35991); experiment: In vivo induction of BTK degradation in ICR mouse monocytes at 20 mg/kg, po after 8 hrs by Western blot analysis relative to control; assay type: functional, organism-based; conditions: Monocyte
Sequence of Tyrosine-protein kinase BTK (Mus musculus) (P35991 whole entry): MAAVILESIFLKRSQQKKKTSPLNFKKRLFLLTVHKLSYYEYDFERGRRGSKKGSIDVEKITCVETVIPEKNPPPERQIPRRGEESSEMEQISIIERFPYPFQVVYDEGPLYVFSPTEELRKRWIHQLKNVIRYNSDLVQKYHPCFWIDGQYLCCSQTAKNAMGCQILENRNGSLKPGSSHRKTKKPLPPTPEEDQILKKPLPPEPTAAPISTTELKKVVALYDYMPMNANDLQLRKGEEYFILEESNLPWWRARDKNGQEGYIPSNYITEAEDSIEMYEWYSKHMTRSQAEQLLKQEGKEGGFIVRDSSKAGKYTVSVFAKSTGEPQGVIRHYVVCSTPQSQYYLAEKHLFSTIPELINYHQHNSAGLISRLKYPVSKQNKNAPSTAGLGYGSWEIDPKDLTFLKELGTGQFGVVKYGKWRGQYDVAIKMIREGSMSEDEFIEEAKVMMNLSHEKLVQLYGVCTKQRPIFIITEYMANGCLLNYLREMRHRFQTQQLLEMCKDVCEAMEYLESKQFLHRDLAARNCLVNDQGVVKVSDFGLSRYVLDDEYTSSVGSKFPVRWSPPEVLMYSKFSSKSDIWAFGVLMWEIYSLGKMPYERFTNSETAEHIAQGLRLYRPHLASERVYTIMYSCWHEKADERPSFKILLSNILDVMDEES

JeKo-1 [12] = experiment: cells; conditions: Homo sapiens
[13] = Half life in Sprague-Dawley rat at 10 mg/kg, po administered as cassette dose measured upto 24 hrs by LC-MS analysis; assay type: ADME, organism-based; conditions: in vivo
MM1.S = experiment: cells; conditions: Homo sapiens
[14] = Dose normalized AUC (0 to t) in Sprague-Dawley rat at 10 mg/kg, po administered as cassette dose measured upto 24 hrs by LC-MS analysis; assay type: ADME, organism-based; conditions: in vivo
cells = conditions: Homo sapiens, MINO
JeKo-1 [15] = experiment: cells; conditions: Homo sapiens; remark: listed apart in the source
[16] = Tmax in ICR mouse at 20 mg/kg, po administered as single dose measured upto 48 hrs by LC-MS analysis; assay type: ADME, organism-based; conditions: in vivo
[17] = test system: Tyrosine-protein kinase BTK (Homo sapiens), Q06187 [C481S]; experiment: Inhibition of BTK C481S mutant (unknown origin)
Sequence of Tyrosine-protein kinase BTK (Homo sapiens), Q06187 [C481S] (Q06187 whole entry C481S): as the sequence (Q06187 whole entry) above, with C481S counted along it

[18] = Oral bioavailability in ICR mouse at 100 mg/kg measured upto 48 hrs by LC/MS analysis; assay type: ADME, organism-based; conditions: in vivo
[19] = molecular target: T1, Tyrosine-protein kinase BTK; experiment: Induction of BTK degradation in human MINO cells assessed as maximum degradation incubated for 24 hrs by Western blot based densitometry analysis relative to control; assay type: cell-based
[20] = molecular target: T1, Tyrosine-protein kinase BTK; experiment: Induction of BTK degradation in human MINO cells assessed as reduction in PLCgamma-2 phosphorylation incubated for 24 hrs by Western blot analysis; assay type: cell-based; conditions: dose 1-200 nM, DDE = dose-dependent effect
[21] = Tmax in ICR mouse at 100 mg/kg, po measured upto 48 hrs by LC/MS analysis; assay type: ADME, organism-based; conditions: in vivo
[22] = molecular target: Proto-oncogene tyrosine-protein kinase Src (Homo sapiens) (UniProt P12931); experiment: Induction of c-SRC tyrosine kinase degradation in human MINO cells at 100 nM measured after 8 hrs by proteomic analysis; assay type: cell-based
Sequence of Proto-oncogene tyrosine-protein kinase Src (Homo sapiens) (P12931 2-536 limits assumed): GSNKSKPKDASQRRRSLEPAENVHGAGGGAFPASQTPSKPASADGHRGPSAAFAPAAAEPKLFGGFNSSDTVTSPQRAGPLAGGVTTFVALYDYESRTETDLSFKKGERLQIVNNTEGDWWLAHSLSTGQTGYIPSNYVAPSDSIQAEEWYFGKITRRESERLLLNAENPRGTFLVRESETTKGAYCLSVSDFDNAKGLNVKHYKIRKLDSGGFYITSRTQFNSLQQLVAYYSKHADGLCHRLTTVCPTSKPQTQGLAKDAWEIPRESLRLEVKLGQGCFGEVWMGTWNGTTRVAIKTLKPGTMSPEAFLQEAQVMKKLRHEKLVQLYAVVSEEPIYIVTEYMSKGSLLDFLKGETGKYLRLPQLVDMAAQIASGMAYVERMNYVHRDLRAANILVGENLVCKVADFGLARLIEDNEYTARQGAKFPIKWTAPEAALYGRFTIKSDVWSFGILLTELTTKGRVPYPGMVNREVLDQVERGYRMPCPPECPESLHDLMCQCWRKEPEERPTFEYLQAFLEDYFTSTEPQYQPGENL

OCI-Ly10 [23] = experiment: Antitumor activity against human OCILY10 cells xenografted in SCID mouse assessed as tumor growth inhibition at 10 mg/kg, po bid measured after 17 days relative to control; assay type: functional; set-up: scale not given: the % may be the effect or the level left; conditions: time 17 day
[24] = AUC (0 to infinity) in ICR mouse at 100 mg/kg, po measured upto 48 hrs by LC/MS analysis; assay type: ADME, organism-based; set-up: time < 48 hrs, dose 100 mg/kg, route po; conditions: in vivo
[25] = molecular target: T1, Tyrosine-protein kinase BTK; experiment: Induction of BTK degradation in human MINO cells at 0.1 to 1000 nM incubated for 2 hrs by Western blot analysis; assay type: cell-based; conditions: dose 0.1-1000 nM
[26] = Cmax in Sprague-Dawley rat at 5 to 10 mg/kg, po administered as cassette dose measured upto 24 hrs by LC-MS analysis; assay type: ADME, organism-based; set-up: time < 24 hrs, route po; conditions: in vivo, dose 5-10 mg/kg
[27] = Toxicity in SCID mouse xenografted with OCILY10 cells assessed as effect on body weight at 10 to 30 mg/kg, po bid measured after 17 days; assay type: organism-based; conditions: in vivo, 408 h, dose 10-30 mg/kg, time 17 day
[28] = MRT in ICR mouse at 2 mg/kg, iv measured upto 48 hrs by LC/MS analysis; assay type: ADME, organism-based; conditions: in vivo
[29] = Volume of distribution at steady state in ICR mouse at 2 mg/kg, iv measured upto 48 hrs by LC/MS analysis; assay type: ADME, organism-based; conditions: in vivo, read-out: Vdss
[30] = Half life in Sprague-Dawley rat at 5 to 10 mg/kg, po administered as cassette dose measured upto 24 hrs by LC-MS analysis; assay type: ADME, organism-based; conditions: in vivo, dose 5-10 mg/kg
[31] = Induction of leukocyte c-SRC kinase degradation in human MINO cells at 100 nM measured after 8 hrs by proteomic analysis
[32] = molecular target: T1, Tyrosine-protein kinase BTK; experiment: Induction of BTK degradation in human MINO cells at 0.1 to 1000 nM incubated for 8 hrs by Western blot analysis relative to control; assay type: cell-based; conditions: dose 0.1-1000 nM
[33] = molecular target: T1, Tyrosine-protein kinase BTK; experiment: Induction of BTK degradation in human MINO cells assessed as reduction in NFkappaB phosphorylation incubated for 24 hrs by Western blot analysis; assay type: cell-based; conditions: dose 1-200 nM, DDE = dose-dependent effect
[34] = Clearance in ICR mouse at 2 mg/kg, iv measured upto 48 hrs by LC/MS analysis; assay type: ADME, organism-based; conditions: in vivo
[35] = Dose normalized AUC (0 to t) in Sprague-Dawley rat at 5 to 10 mg/kg, po administered as cassette dose measured upto 24 hrs by LC-MS analysis; assay type: ADME, organism-based; conditions: in vivo, dose 5-10 mg/kg
[36] = AUC (0 to t) in ICR mouse at 100 mg/kg, po measured upto 48 hrs by LC/MS analysis; assay type: ADME, organism-based; set-up: time < 48 hrs, dose 100 mg/kg, route po; conditions: in vivo
[37] = Half life in ICR mouse at 100 mg/kg, po measured upto 48 hrs by LC/MS analysis; assay type: ADME, organism-based; conditions: in vivo
[38] = molecular target: T1, Tyrosine-protein kinase BTK; experiment: Induction of BTK degradation in human MINO cells incubated for 24 hrs by Western blot; assay type: cell-based; conditions: dose 1-1000 nM, DDE = dose-dependent effect
[39] = AUC (0 to t) in Sprague-Dawley rat at 5 to 10 mg/kg, po administered as cassette dose measured upto 24 hrs by LC-MS analysis; assay type: ADME, organism-based; set-up: time < 24 hrs, route po; conditions: in vivo, dose 5-10 mg/kg
HEK293 [40] = experiment: Induction of BTK C481 mutant degradation in human HEK293 cells incubated for 24 hrs by Western blot analysis; assay type: cell-based; conditions: dose 1-1000 nM, DDE = dose-dependent effect
[41] = Tmax in Sprague-Dawley rat at 5 to 10 mg/kg, po administered as cassette dose measured upto 24 hrs by LC-MS analysis; assay type: ADME, organism-based; conditions: in vivo, dose 5-10 mg/kg
[42] = molecular target: Tyrosine-protein kinase BTK (Mus musculus) (UniProt P35991); experiment: In vivo induction of BTK degradation in ICR mouse monocytes assessed as protein remaining at 100 mg/kg, po after 24 hrs by Western blot analysis relative to control; assay type: functional, organism-based; conditions: Monocyte
[43] = molecular target: T1, Tyrosine-protein kinase BTK; experiment: Induction of BTK degradation in human MINO cells incubated for 24 hrs by Western blot based densitometry analysis; assay type: cell-based
[44] = molecular target: Tyrosine-protein kinase BTK (Mus musculus) (UniProt P35991); experiment: In vivo induction of BTK degradation in ICR mouse monocytes assessed as protein remaining at 100 mg/kg, po after 6 hrs by Western blot analysis relative to control; assay type: functional, organism-based
[45] = Cmax in ICR mouse at 100 mg/kg, po measured upto 48 hrs by LC/MS analysis; assay type: ADME, organism-based; set-up: dose 100 mg/kg, time < 48 hrs, route po; conditions: in vivo
HEK293 [46] = experiment: Induction of BTK T316 mutant degradation in human HEK293 cells incubated for 24 hrs by Western blot analysis; assay type: cell-based; conditions: dose 1-1000 nM, DDE = dose-dependent effect
OCI-Ly10 [47] = experiment: Antitumor activity against human OCILY10 cells xenografted in SCID mouse assessed as tumor growth inhibition at 30 mg/kg, po bid measured after 17 days relative to control; assay type: functional; set-up: scale not given: the % may be the effect or the level left; conditions: time 17 day
[48] = molecular target: T1, Tyrosine-protein kinase BTK; experiment: Induction of BTK degradation in human MINO cells at 100 nM measured after 8 hrs by proteomic analysis; assay type: cell-based

Compound: Nc1ncnc2c1c(-c1ccc(Oc3ccccc3)cc1)nn2[C@@H]1CCCN(C(=O)CCC(=O)N2CCN(CC#Cc3ccc4c(c3)CN(C3CCC(=O)NC3=O)C4=O)CC2)C1 (stereo not given in full)
- AUC(0-t) at 24 h [1]: 288 ng·h/mL
- Cmax [2]: 84 ng/mL
- AUC(0-t) at 48 h [3]: 374 ng·h/mL
- IC50 [4]: 6.3 nM
- half-life [5]: 2.6 h
- IC50 (TMD8): 16.3 nM
- Cmax [6]: 224 ng/mL
- Activity [7]: Dde
- IC50 (OCI-Ly10 [8]): 12.9 nM
- Tmax [9]: 0.7 h
- AUC(0-inf) [10]: 404 ng·h/mL
- Activity [11]: 37.2%
- IC50 (JeKo-1 [12]): 11600 nM
- half-life [13]: 6.5 h
- IC50 (MM1.S): 1920 nM
- AUCt/dose [14]: 29 ng·h/mL/mg
- IC50 (cells): 123 nM
- IC50 (JeKo-1 [15]): 825 nM
- Tmax [16]: 0.5 h

Compound: Nc1ncnc2c1c(-c1ccc(Oc3ccccc3)cc1)nn2C1CCN(C2CCN(CC#Cc3ccc4c(c3)CN(C3CCC(=O)NC3=O)C4=O)CC2)CC1 (stereo not given)
- inhibition [17]: Active
- bioavailability [18]: 12%
- Emax [19]: 96%
- Activity [20]: Dde
- Tmax [21]: 8.3 h
- Activity [22]: Active
- IC50 [4]: 9 nM
- IC50 (TMD8): 4.7 nM
- Activity (OCI-Ly10 [23]): 50.9%
- AUC(0-inf) [24]: 17100 ng·h/mL
- Activity [25]: Active
- Cmax [26]: 16 ng/mL
- Activity [27]: Non-Toxic
- IC50 (OCI-Ly10 [8]): 5.9 nM
- MRT [28]: 4.5 h
- Vd [29]: 3.1 L/kg
- half-life [30]: 12.7 h
- Activity [31]: Active
- IC50 (JeKo-1 [12]): 708 nM
- Activity [32]: 91%
- Activity [33]: Dde
- clearance [34]: 11.8 mL/min/kg
- AUCt/dose [35]: 8 ng·h/mL/mg
- AUC(0-t) at 48 h [36]: 16900 ng·h/mL
- half-life [37]: 1 h
- Activity [38]: Dde
- IC50 (JeKo-1 [15]): 105 nM
- AUC(0-t) at 24 h [39]: 83 ng·h/mL
- Activity (HEK293 [40]): Dde
- Tmax [41]: 0.7 h
- Activity [42]: 24%
- DC50 [43]: 5.8 nM
- Activity [44]: Active
- Cmax [45]: 3090 ng/mL
- Activity (HEK293 [46]): Dde
- Activity (OCI-Ly10 [47]): 96.9%
- Activity [48]: Active

Compound: Nc1ncnc2c1c(-c1ccc(Oc3ccccc3)cc1)nn2[C@@H]1CCCN(C(=O)CC(=O)NCC#CCN2CCN(CC#Cc3ccc4c(c3)CN(C3CCC(=O)NC3=O)C4=O)CC2)C1 (stereo not given in full)
- AUC(0-t) at 24 h [1]: 21.5 ng·h/mL
- Cmax [2]: 461 ng/mL
- AUC(0-t) at 48 h [3]: 39 ng·h/mL
- IC50 [4]: 24.4 nM
- half-life [5]: 5.3 h
- IC50 (TMD8): 106 nM
- Cmax [6]: 20 ng/mL
- Activity [7]: Dde
- IC50 (OCI-Ly10 [8]): 40.2 nM
- Tmax [9]: 0.7 h
- AUC(0-inf) [10]: 55 ng·h/mL
- Activity [11]: 16.5%
- IC50 (JeKo-1 [12]): 20000 nM
- half-life [13]: 7.9 h
- IC50 (MM1.S): > 20000 nM
- AUCt/dose [14]: 215 ng·h/mL/mg
- IC50 (cells): 800 nM
- IC50 (JeKo-1 [15]): 6570 nM
- Tmax [16]: 0.3 h
